From patent US20150133664A1, “CHEMICAL TRANS[…] (-)-CODEINE TO AFFORD DERIVATIVES OF CODEINE AND MORPHINE THEREOF” (BOARD OF REGENTS, THE UNIVERSITY OF TEXAS SYSTEM, priority 2012, published 2015)

Test: potency compared with codeine and morphine (test not described)
Details: no assay, value or method printed

COc1ccc2c3c1O[C@H]1C(O)[C@H](C)C[C@H]4[C@@H](C2)N(C)CC[C@]314 (stereo partly drawn) [Compound 8, 7β-Methyl-7,8-dihydrocodeine]
potency compared with codeine (compared with codeine): increased potency

C[C@@H]1C[C@H]2[C@H]3Cc4ccc(O)c5c4[C@@]2(CCN3C)[C@@H](O5)C1O (stereo partly drawn) [Compound 9, 7β-Methyl-7,8-dihydromorphine]
potency compared with morphine (compared with morphine): increased potency
